Data: US7855233B2 (Teva Pharmaceutical Industries, Ltd., priority 2009, dated 2010)
≈ marks a conversion by molar mass, not a printed value. Where a name gives a salt, the structure may show the parent alone. Read-outs that look alike come from different tables or passages of the source.

What was measured:
[1] = Free rasagiline base in citrate salt preparations (toluene extraction, TLC, pH); conditions: for Content of extractable base (toluene) % on total base content: by ratio base to acid mole:mole
[2] = Exposure of citrate salts to atmospheric air in open dishes at ambient temperature; type: physicochemical; conditions: for Changes on exposure to atmosphere (appearance): ambient temperature, open dish
From the text: (§1) The changes were observed and recorded.

[3] = from references, cited from earlier work
[4] = target: B-form of the enzyme monoamine oxidase (“MAO-B”) (Homo sapiens, UniProt P27338); conditions: reported in prior patents; cited from earlier work
physchem = conditions: water
[5] = Aqueous / water solubility; conditions: aqueous citric acid reaction solution
[6] = Storage of citrate salts in sealed glass vials in refrigerator; type: physicochemical; conditions: 7±2° C., sealed vial
From the text: as §1

[7] = Aqueous salt solutions held at +5° C.; type: physicochemical; conditions: 15 hrs at +5° C.
Experimental: (§2) 3.02 g of Citric acid was dissolved in 4 ml deionized water. […] Exothermic effect was observed (temperature rose from 22 to 25° C.), and most of the solid was dissolved. Then the mixture was heated to 42° and complete dissolution of the solid was observed. The resulting clear viscous syrup-like solution was held in refrigerator at +5° C. overnight.
3.45 g of Citric acid was dissolved in 5 ml deionized water and pre-heated to 30° C. […] Exothermic effect was observed (temperature rose from 30 to 36° C.), and the solid was dissolved. The resulted clear viscous syrup-like solution was held in refrigerator at +5° C. overnight.
as §2, with “3.46” for “3.02”, “5” for “4”, “27°” for “25°”, “46° C. 0.5 ml water was added” for “42°”

[8] = cited from earlier work

B-form of the enzyme monoamine oxidase (“MAO-B”), sequence (P27338 whole entry, species assumed): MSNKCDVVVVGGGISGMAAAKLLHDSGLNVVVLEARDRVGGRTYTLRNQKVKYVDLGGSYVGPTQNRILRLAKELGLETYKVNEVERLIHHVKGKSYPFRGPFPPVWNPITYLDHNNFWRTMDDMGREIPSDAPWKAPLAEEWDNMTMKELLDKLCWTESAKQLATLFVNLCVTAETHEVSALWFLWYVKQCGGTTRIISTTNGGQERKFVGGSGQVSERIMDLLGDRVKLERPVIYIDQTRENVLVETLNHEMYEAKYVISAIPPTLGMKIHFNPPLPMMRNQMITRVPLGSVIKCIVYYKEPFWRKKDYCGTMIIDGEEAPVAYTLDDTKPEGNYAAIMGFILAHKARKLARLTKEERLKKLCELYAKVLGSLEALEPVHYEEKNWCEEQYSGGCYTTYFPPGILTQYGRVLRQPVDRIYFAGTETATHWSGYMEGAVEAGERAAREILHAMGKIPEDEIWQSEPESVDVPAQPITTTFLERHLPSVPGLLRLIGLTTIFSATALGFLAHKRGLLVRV

C#CCNC1CCc2ccccc21.C#CCNC1CCc2ccccc21.C#CCNC1CCc2ccccc21.O=C(O)CC(O)(CC(=O)O)C(=O)O (stereo not drawn) [Tri-citrate, tri-rasagiline citrate]
Content of extractable base (toluene) % on total base content [1]: 42.7%

rasagiline citrate
hygroscopicity (in words) ([2]; exposed to air/humidity at ambient temperature): highest hygroscopicity

Oxalate
Hygroscopicity by KF ([3]; Table 8c): Not hygroscopic

C#CCN[C@@H]1CCc2ccccc21 [Mesylate, Rasagiline mesylate]
Hygroscopicity by KF ([3]; Table 8c): Not hygroscopic

O=C(O)CC(O)(CC(=O)O)C(=O)O [Citric Acid, Citric acid]
Hygroscopicity by KF ([3]; Table 8b): low

Cl [Chloride]
Hygroscopicity by KF ([3]; Table 8c): Not hygroscopic

C#CCN[C@@H]1CCc2ccccc21 [Rasagiline, R(+)-N-propargyl-1-aminoindan]
inhibition of MAO-B [4]: selective inhibitor
Hygroscopicity by KF ([3]; Table 8b): Not hygroscopic
solubility (physchem): ~2000 µg/mL (≈ 11.7 mM)
dissolves in aqueous reaction solution [5]: more than 10 wt %

C#CCN[C@@H]1CCc2ccccc21.C#CCN[C@@H]1CCc2ccccc21.O=C(O)CC(O)(CC(=O)O)C(=O)O [Example 4c]
Appearance stored in refrigerator ([6]; 0 month): White powder
Appearance stored in refrigerator ([6]; 3 months): White powder
Appearance stored in refrigerator ([6]; 6 months): White powder
precipitation from solution [7]: No precipitation
Changes on exposure to atmosphere (appearance) ([2]; 0:00 hrs:min): Powder
Changes on exposure to atmosphere (appearance) ([2]; 0:50-1:00 hrs:min): Powder
Changes on exposure to atmosphere (appearance) ([2]; 0:30 hrs:min): Powder
Changes on exposure to atmosphere (appearance) ([2]; 1:50-2:00 hrs:min): Powder
Changes on exposure to atmosphere (appearance) ([2]; 5:00 hrs:min): Lump powder

C#CCN[C@@H]1CCc2ccccc21.C#CCN[C@@H]1CCc2ccccc21.C#CCN[C@@H]1CCc2ccccc21.O=C(O)CC(O)(CC(=O)O)C(=O)O [Example 4d]
Appearance stored in refrigerator ([6]; 0 month): White powder
Appearance stored in refrigerator ([6]; 3 months): White powder
Appearance stored in refrigerator ([6]; 6 months): White powder
precipitation from solution [7]: No precipitation
Changes on exposure to atmosphere (appearance) ([2]; 0:00 hrs:min): Powder
Changes on exposure to atmosphere (appearance) ([2]; 0:30 hrs:min): Powder
Changes on exposure to atmosphere (appearance) ([2]; 5:00 hrs:min): Semi-solid
Changes on exposure to atmosphere (appearance) ([2]; 6:00 hrs:min): Semi-solid

C#CCN[C@@H]1CCc2ccccc21.O=C(O)CC(O)(CC(=O)O)C(=O)O [Example 4b]
Appearance stored in refrigerator ([6]; 0 month): White powder
Appearance stored in refrigerator ([6]; 3 months): White powder
Appearance stored in refrigerator ([6]; 6 months): White powder
precipitation from solution [7]: No precipitation
Changes on exposure to atmosphere (appearance) ([2]; 0:00 hrs:min): Powder
Changes on exposure to atmosphere (appearance) ([2]; 1:50-2:00 hrs:min): Semi-solid
Changes on exposure to atmosphere (appearance) ([2]; 6:00 hrs:min): Syrup
Changes on exposure to atmosphere (appearance) ([2]; 7:00 hrs:min): Syrup

C#CCNC1CCc2ccccc21.C#CCNC1CCc2ccccc21.O=C(O)CC(O)(CC(=O)O)C(=O)O (stereo not drawn) [Di-citrate, di-rasagiline citrate]
Content of extractable base (toluene) % on total base content [1]: 22.0%

C#CCN[C@@H]1CCc2ccccc21.C#CCN[C@@H]1CCc2ccccc21.O=S(=O)(O)CCS(=O)(=O)O [Edisilate]
Hygroscopicity by KF ([3]; Table 8c): Not hygroscopic

C#CCN[C@@H]1CCc2ccccc21.O=C(O)CC(O)(CC(=O)O)C(=O)O [Mono-citrate, mono-rasagiline citrate]
Content of extractable base (toluene) % on total base content [1]: 1.75-3.6%

C#CCN[C@@H]1CCc2ccccc21.O=C(O)CC(O)(CC(=O)O)C(=O)O [Example 5.1]
Extracted R-PAI (%) ([1]; free base extracted with toluene, solvent and citric acid:base mole proportions per example): 0.06 g-1.75%

Tosylate
Water solubility ([8]; Table 8c, from references): 60000 to 70000 µg/mL

rasagiline maleate
Water solubility (mg/ml) ([8]; Table 8c, from references): >=1000 mg/ml
solubility ([8]; as described in U.S. Pat. No. 6,630,514): not less than 1000 mg/ml water
